28 compounds from patent publication US7919498B2, “Substituted pyrazolo[3,4-d]pyrimidines as PI3K inhibitors” (Amgen Inc., priority 2007, dated 2011) can be followed below.

As usually defined, the IC50 is the concentration that gives 50% inhibition.

The structures appear in SMILES notation.

T1 sequence (O00329 whole entry): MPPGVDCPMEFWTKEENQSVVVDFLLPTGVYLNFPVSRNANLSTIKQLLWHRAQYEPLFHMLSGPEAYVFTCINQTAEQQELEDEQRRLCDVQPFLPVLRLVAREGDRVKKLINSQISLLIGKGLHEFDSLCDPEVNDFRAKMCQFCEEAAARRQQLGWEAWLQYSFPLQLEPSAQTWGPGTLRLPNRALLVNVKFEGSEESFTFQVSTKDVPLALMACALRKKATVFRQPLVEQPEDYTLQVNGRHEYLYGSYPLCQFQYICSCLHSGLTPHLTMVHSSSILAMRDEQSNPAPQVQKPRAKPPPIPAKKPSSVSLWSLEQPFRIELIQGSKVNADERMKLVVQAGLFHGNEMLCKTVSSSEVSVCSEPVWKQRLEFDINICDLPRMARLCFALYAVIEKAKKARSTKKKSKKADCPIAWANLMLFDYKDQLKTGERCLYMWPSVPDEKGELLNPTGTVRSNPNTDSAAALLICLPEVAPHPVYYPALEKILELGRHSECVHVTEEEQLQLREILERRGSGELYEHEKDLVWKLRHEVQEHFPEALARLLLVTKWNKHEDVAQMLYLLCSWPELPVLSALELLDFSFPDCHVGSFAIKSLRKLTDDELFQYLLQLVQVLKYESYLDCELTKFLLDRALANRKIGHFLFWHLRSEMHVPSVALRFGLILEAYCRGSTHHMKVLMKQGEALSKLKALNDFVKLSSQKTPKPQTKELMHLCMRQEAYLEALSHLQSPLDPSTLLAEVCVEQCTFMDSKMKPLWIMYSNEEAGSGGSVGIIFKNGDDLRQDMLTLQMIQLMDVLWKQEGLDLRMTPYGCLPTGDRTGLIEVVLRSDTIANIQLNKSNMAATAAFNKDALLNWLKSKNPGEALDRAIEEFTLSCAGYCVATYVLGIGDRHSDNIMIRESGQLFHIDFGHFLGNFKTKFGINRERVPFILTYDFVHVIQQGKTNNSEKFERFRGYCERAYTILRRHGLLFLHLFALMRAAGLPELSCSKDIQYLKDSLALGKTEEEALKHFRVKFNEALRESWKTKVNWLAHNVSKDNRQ
T1 sequence (P27986 whole entry partner): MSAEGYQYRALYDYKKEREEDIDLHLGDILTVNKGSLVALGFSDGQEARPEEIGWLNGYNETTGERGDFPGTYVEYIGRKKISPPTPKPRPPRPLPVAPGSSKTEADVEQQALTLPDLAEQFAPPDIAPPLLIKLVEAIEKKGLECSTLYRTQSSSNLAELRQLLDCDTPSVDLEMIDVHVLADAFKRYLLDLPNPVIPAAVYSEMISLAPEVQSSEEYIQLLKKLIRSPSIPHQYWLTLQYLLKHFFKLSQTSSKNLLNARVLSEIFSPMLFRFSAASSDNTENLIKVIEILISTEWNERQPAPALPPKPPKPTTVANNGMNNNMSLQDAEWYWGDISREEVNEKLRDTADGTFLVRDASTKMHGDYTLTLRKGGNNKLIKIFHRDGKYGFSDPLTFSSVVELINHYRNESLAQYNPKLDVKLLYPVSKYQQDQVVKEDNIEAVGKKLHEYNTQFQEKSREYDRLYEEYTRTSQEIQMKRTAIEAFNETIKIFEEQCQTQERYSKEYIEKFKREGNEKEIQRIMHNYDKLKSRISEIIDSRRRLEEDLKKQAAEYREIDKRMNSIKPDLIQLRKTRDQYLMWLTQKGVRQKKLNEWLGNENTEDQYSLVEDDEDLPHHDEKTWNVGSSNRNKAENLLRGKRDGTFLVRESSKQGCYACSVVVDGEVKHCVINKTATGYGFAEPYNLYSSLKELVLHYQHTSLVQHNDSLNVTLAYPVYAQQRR

The first experiment concerns human B cells. As to the kind of experiment: Human B cells proliferation stimulated by anti-IgM. Type of experiment: cell-based. To be noted: B-cell; anti-Human IgM + CD40L-LZ, 72 h, 3H thymidine. The protocol: Human B Cells Proliferation Stimulate by Anti-IgM
Isolate PBMCs from Leukopac or from human fresh blood. Isolate human B cells by using Miltenyi protocol and B cell isolation kit II.—human B cells were Purified by using AutoMacs.column.
Activation of Human B Cells
Use 96 well Flat bottom plate, plate 50000/well purified B cells in B cell proliferation medium (DMEM+5% FCS, 10 mM Hepes, 50 μM 2-mercaptoethanol); 150 μL medium contain 250 ng/mL CD40L-LZ recombinant protein (Amgen) and 2 μg/mL anti-Human IgM antibody (Jackson ImmunoReseach Lab.# 109-006-129), mixed with 50 μL B cell medium containing PI3K inhibitors and incubate 72 h at 37° C. incubator. After 72 h, pulse labeling B cells with 0.5-1 uCi/well ^3H thymidine for overnight ˜18 h, and harvest cell using TOM harvester.
On to `Nc1ncnc2c1c(I)nn2Cc1nc2cccc(F)c2nc1-c1ccccc1Cl` [1-((3-(2-Chlorophenyl)-5-fluoroquinoxalin-2-yl)methyl)-3-iodo-1H-pyrazolo[3,4-d]pyrimidin-4-amine], for which the IC50 turned out to be 554 nM.

As to `Nc1ncnc2c1c(I)nn2Cc1nc2c(F)cccc2nc1-c1ccccc1Cl` [1-((3-(2-Chlorophenyl)-8-fluoroquinoxalin-2-yl)methyl)-3-iodo-1H-pyrazolo[3,4-d]pyrimidin-4-amine], the IC50 is 818 nM. For `Cc1cccc2nc(Cn3nc(-c4cnn(C)c4)c4c(N)ncnc43)c(-c3ccccc3Cl)nc12` [1-((3-(2-chlorophenyl)-5-methylquinoxalin-2-yl)methyl)-3-(1-methyl-1H-pyrazol-4-yl)-1H-pyrazolo[3,4-d]pyrimidin-4-amine], the IC50 stood at 37 nM. The same measure, in the same setting: the figure for `Cc1cccc2nc(-c3ccccc3Cl)c(Cn3nc(-c4cnn(C)c4)c4c(N)ncnc43)nc12` [1-((3-(2-chlorophenyl)-8-methylquinoxalin-2-yl)methyl)-3-(1-methyl-1H-pyrazol-4-yl)-1H-pyrazolo[3,4-d]pyrimidin-4-amine] is 19.8 nM. The same measure, in the same setting: the figure for `Nc1ncnc2c1c(-c1cn[nH]c1)nn2Cc1cc2cccc(Cl)c2nc1-c1ccccc1F` [1-((8-chloro-2-(2-fluorophenyl)-3-quinolinyl)methyl)-3-(1H-pyrazol-4-yl)-1H-pyrazolo[3,4-d]pyrimidin-4-amine] is 18.2 nM; for `Cc1cccc2nc(Cn3nc(I)c4c(N)ncnc43)c(-c3cccc(F)c3)c(=O)n12` [2-((4-amino-3-iodo-1H-pyrazolo[3,4-d]pyrimidin-1-yl)-methyl)-3-(3-fluorophenyl)-6-methyl-4H-pyrido[1,2-a]pyrimidin-4-one] it is 512 nM.

Consider `Cc1cccc2nc(Cn3nc(C#N)c4c(N)ncnc43)c(-c3ccccc3Cl)nc12` [4-Amino-1-((3-(2-chlorophenyl)-5-methylquinoxalin-2-yl)methyl)-1H-pyrazolo[3,4-d]pyrimidine-3-carbonitrile], for which the IC50 stood at 1.99 nM. Take `Cc1cccc2nc(-c3ccccc3Cl)c(Cn3nc(C#N)c4c(N)ncnc43)nc12` [4-Amino-1-((3-(2-chlorophenyl)-8-methylquinoxalin-2-yl)methyl)-1H-pyrazolo[3,4-d]pyrimidine-3-carbonitrile]: the IC50 is 83.8 nM.

Another experiment has as its target T1, PI3Kδ (Homo sapiens, UniProt O00329).
T1 construct: Full length p110 subunits of PI3k α, β and δ, N-terminally labeled with polyHis tag; polyHis (N); made in house; host or cells: Sf9 insect cells (baculovirus)
In words: In vitro enzyme assay of PI3Kδ (residual ATP bioluminescence). Type of experiment: biochemical.
Settings: not given
The protocol:
Recombinant Expression of PI3Ks
Full length p110 subunits of PI3k α, β and δ, N-terminally labeled with polyHis tag, were coexpressed with p85 with Baculo virus expression vectors in sf9 insect cells. P110/p85 heterodimers were purified by sequential Ni-NTA, Q-HP, Superdex-100 chromatography. Purified α, β and δ isozymes were stored at −20° C. in 20 mM Tris, pH 8, 0.2M NaCl, 50% glycerol, 5 mM DTT, 2 mM Na cholate. Truncated PI3Kγ, residues 114-1102, N-terminally labeled with polyHis tag, was expressed with Baculo virus in Hi5 insect cells. The γ isozyme was purified by sequential Ni-NTA, Superdex-200, Q-HP chromatography. The γ isozyme was stored frozen at −80° C. in NaH2PO4, pH 8, 0.2M NaCl, 1% ethylene glycol, 2 mM β-mercaptoethanol.
Assays were performed in 25 μL with the above final concentrations of components in white polyproplyene plates (Costar 3355). Phospatidyl inositol phosphoacceptor, PtdIns(4,5)P2 P4508, was from Echelon Biosciences. The ATPase activity of the alpha and gamma isozymes was not greatly stimulated by PtdIns(4,5)P2 under these conditions and was therefore omitted from the assay of these isozymes. Test compounds were dissolved in dimethyl sulfoxide and diluted with three-fold serial dilutions. The compound in DMSO (1 μL) was added per test well, and the inhibition relative to reactions containing no compound, with and without enzyme was determined. After assay incubation at room temperature, the reaction was stopped and residual ATP determined by addition of an equal volume of a commercial ATP bioluminescence kit (Perkin Elmer EasyLite) according to the manufacturer's instructions, and detected using a AnalystGT luminometer.
Consider `Cc1cccc2cc(Cn3cnc4c(N)ncnc43)c(-c3ccccc3Cl)nc12` [Example 1, 9-((2-(2-Chlorophenyl)-8-methylquinolin-3-yl)methyl)-9H-purin-6-amine], for which the concentration for half-maximal inhibition (IC50) worked out at 2130 nM. `Cc1cccc2cc(Cn3ccc(=O)c4c(N)ncnc43)c(-c3ccccc3Cl)nc12` [Example 2, 4-Amino-8-((2-(2-chlorophenyl)-8-methylquinolin-3-yl)methyl)pyrido[2,3-d]pyrimidin-5(8H)-one] had an IC50 of 58 nM.

`Cc1ccccc1-c1nc2c(C)cccc2cc1Cn1nc(I)c2c(N)ncnc21` [Example 4, 3-Iodo-1-((8-methyl-2-o-tolylquinolin-3-yl)methyl)-1H-pyrazolo[3,4-d]pyrimidin-4-amine]: the IC50 came out at 6 nM. As for `Nc1ncnc2c1c(I)nn2Cc1cc2cccc(Cl)c2nc1-c1ccccc1Cl` [Example 5, 1-((8-Chloro-2-(2-chlorophenyl)quinolin-3-yl)methyl)-3-iodo-1H-pyrazolo[3,4-d]pyrimidin-4-amine], the midpoint of inhibition, the IC50, lay at 14 nM. On to `Nc1ncnc2c1c(I)nn2Cc1cc2cccc(Cl)c2nc1-c1ccccc1C(F)(F)F` [Example 6, 1-((8-Chloro-2-(2-(trifluoromethyl)phenyl)quinolin-3-yl)methyl)-3-iodo-1H-pyrazolo[3,4-d]pyrimidin-4-amine], for which 7 nM corresponded to half-maximal inhibition (IC50). In the case of `Cc1cccc2cc(Cn3nc(I)c4c(N)ncnc43)c(-c3ccccc3F)nc12` [Example 7, 1-((2-(2-Fluorophenyl)-8-methylquinolin-3-yl)methyl)-3-iodo-1H-pyrazolo[3,4-d]pyrimidin-4-amine], inhibition was half-maximal at 4 nM (IC50). `Cc1cccc2cc(Cn3nc(-c4cccc(O)c4)c4c(N)ncnc43)c(-c3ccccc3C(F)(F)F)nc12` [Example 8, 3-(4-Amino-1-((8-methyl-2-(2-(trifluoromethyl)phenyl)quinolin-3-yl)methyl)-1H-pyrazolo[3,4-d]pyrimidin-3-yl)phenol] registered an IC50 of 8 nM. On to `Nc1ncnc2c1c(-c1cccc(O)c1)nn2Cc1cc2cccc(Cl)c2nc1-c1ccccc1Cl` [Example 10, 3-(4-Amino-1-((8-chloro-2-(2-chlorophenyl)quinolin-3-yl)methyl)-1H-pyrazolo[3,4-d]pyrimidin-3-yl)phenol], for which the half-inhibitory concentration (IC50) worked out at 14 nM. As for `Cc1cccc2cc(Cn3nc(C)c4c(N)ncnc43)c(-c3ccccc3Cl)nc12` [Example 11, 1-((2-(2-Chlorophenyl)-8-methylquinolin-3-yl)methyl)-3-methyl-1H-pyrazolo[3,4-d]pyrimidin-4-amine], the IC50 came to 137 nM. Take `Cc1cccc2cc(Cn3nc(-c4cn[nH]c4)c4c(N)ncnc43)c(-c3ccccc3C(F)(F)F)nc12` [Example 12, 1-((8-Methyl-2-(2-(trifluoromethyl)phenyl)quinolin-3-yl)methyl)-3-(1H-pyrazol-4-yl)-1H-pyrazolo[3,4-d]pyrimidin-4-amine]: the half-inhibitory concentration (IC50) came to 8 nM. Compound `Cc1cccc2cc(Cn3nc(C4CC4)c4c(N)ncnc43)c(-c3ccccc3C(F)(F)F)nc12` [Example 13, 3-Cyclopropyl-1-((8-methyl-2-(2-(trifluoromethyl)phenyl)quinolin-3-yl)methyl)-1H-pyrazolo[3,4-d]pyrimidin-4-amine] had an IC50 of 149 nM.

The compound `Cc1cccc2cc(Cn3nc(C#CC(C)(C)O)c4c(N)ncnc43)c(-c3ccccc3C(F)(F)F)nc12` [Example 14, 4-(4-Amino-1-((8-methyl-2-(2-(trifluoromethyl)phenyl)quinolin-3-yl)methyl)-1H-pyrazolo[3,4-d]pyrimidin-3-yl)-2-methylbut-3-yn-2-ol] displayed an IC50 of 116 nM.

For `Cc1cccc2nc(-c3ccccc3Cl)c(Cn3nc(I)c4c(N)ncnc43)nc12` [Example 15, 1-((3-(2-Chlorophenyl)-8-methylquinoxalin-2-yl)methyl)-3-iodo-1H-pyrazolo[3,4-d]pyrimidin-4-amine], it took 38 nM to reach half-maximal inhibition (IC50).

Compound `Cc1cccc2nc(Cn3nc(I)c4c(N)ncnc43)c(-c3ccccc3Cl)nc12` [Example 16, 1-((3-(2-Chlorophenyl)-5-methylquinoxalin-2-yl)methyl)-3-iodo-1H-pyrazolo[3,4-d]pyrimidin-4-amine] returned an IC50 of 21 nM. Regarding `Cc1cccc2nc(-c3ccccc3Cl)c(Cn3nc(-c4cn[nH]c4)c4c(N)ncnc43)nc12` [Example 17, 1-((3-(2-Chlorophenyl)-8-methylquinoxalin-2-yl)methyl)-3-(1H-pyrazol-4-yl)-1H-pyrazolo[3,4-d]pyrimidin-4-amine], it took 18 nM to reach half-maximal inhibition (IC50). `Cc1cccc2nc(Cn3nc(-c4cn[nH]c4)c4c(N)ncnc43)c(-c3ccccc3Cl)nc12` [Example 18, 1-((3-(2-Chlorophenyl)-5-methylquinoxalin-2-yl)methyl)-3-(1H-pyrazol-4-yl)-1H-pyrazolo[3,4-d]pyrimidin-4-amine]: the half-maximal inhibitory concentration (IC50) stood at 30 nM. `Cc1cccc2cc(Cn3ccc4c(N)ncnc43)c(-c3ccccc3Cl)nc12` [Example 19, 7-((2-(2-Chlorophenyl)-8-methylquinolin-3-yl)methyl)-7H-pyrrolo[2,3-d]pyrimidin-4-amine] returned an IC50 of 1970 nM.

Turning to `Cc1cccc2cc(Cn3cc(Cl)c4c(N)ncnc43)c(-c3ccccc3Cl)nc12` [Example 20, 5-Chloro-7-((2-(2-chlorophenyl)-8-methylquinolin-3-yl)methyl)-7H-pyrrolo[2,3-d]pyrimidin-4-amine], the midpoint of inhibition, the IC50, lay at 20 nM. With `COc1ccccc1-n1c(Cn2ccc(=O)c3c(N)ncnc32)nc2cccc(Cl)c2c1=O` [Example 21, 4-Amino-8-((5-chloro-3-(2-methoxyphenyl)-4-oxo-3,4-dihydroquinazolin-2-yl)methyl)pyrido[2,3-d]pyrimidin-5(8H)-one], the IC50 was found to be 13 nM. Still for that read-out and setting: to `Nc1ncnc2c1c(=O)ccn2Cc1cc2cccc(Cl)c2nc1-c1ccccc1Cl` [Example 22, 4-Amino-8-((8-chloro-2-(2-chlorophenyl)quinolin-3-yl)methyl)pyrido[2,3-d]pyrimidin-5(8H)-one] belongs 33 nM.
